In patent US20250313535A1, “ALPHA 4 BETA 7 INTEGRIN MODULATORS AND USES THEREOF” (DICE MOLECULES SV, INC., priority 2022, published 2025):
Where two headings read alike, the source gives them in different places.

Key:
α4β7 integrin = α4β7 integrin (Homo sapiens (Human), UniProt P13612+P26010); assay: Integrin Adhesion Assay: Protocol 4 (MAdCAM-coated plate, RPMI-8866 cells with stable LOF mutation of the ITGB1 gene); type: cell-based
How it was run: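 RPMI-8866 cells with CRISPR/Cas9 knockout of ITGB1 (2×10^6/mL) were added to MAdCAM-coated wells with compound (1% DMSO) in HEPES/NaCl buffer with 1 mM MnCl2, 0.1 mM CaCl2 and 1% BSA, then incubated 1 h at 37 °C. After four washes, adherent cells were quantified by CellTiter-Glo luminescence. Percent inhibition versus DMSO and control compound was fitted to 4-parameter curves.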

α4β1 integrin = α4β1 integrin (Homo sapiens (Human), UniProt P05556+P13612); assay: Integrin Adhesion Assay: Protocol 5 (VCAM-coated plate, RPMI-8866 cells with stable LOF mutation of the ITGB7 gene); type: cell-based
How it was run: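 RPMI-8866 B cells with CRISPR/Cas9 ITGB7 knockout (clonal, verified by flow cytometry) adhered to VCAM-coated wells for 1 h at 37° C in HEPES/NaCl buffer with 1 mM MnCl2, 0.1 mM CaCl2, 1% BSA, 1% DMSO. Bound cells quantified by CellTiter-Glo luminescence after washing; % inhibition versus DMSO and control, 4-parameter fit.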

[1] = Protocol 4, RPMI-8866 cells with LOF mutation of ITGB1, MAdCAM, read-out: Mean IC50 α4β7 KO
[2] = Protocol 5, RPMI-8866 cells with LOF mutation of ITGB7, VCAM, read-out: Mean IC50 α4β1 KO
[3] = RPMI-8866 cells with stable LOF mutation of the ITGB1 gene, read-out: Mean IC50 α4β7 KO^a
[4] = RPMI-8866 cells with stable LOF mutation of the ITGB7 gene, read-out: Mean IC50 α4β1 KO^b

Chain of α4β7 integrin (P13612 34-1032): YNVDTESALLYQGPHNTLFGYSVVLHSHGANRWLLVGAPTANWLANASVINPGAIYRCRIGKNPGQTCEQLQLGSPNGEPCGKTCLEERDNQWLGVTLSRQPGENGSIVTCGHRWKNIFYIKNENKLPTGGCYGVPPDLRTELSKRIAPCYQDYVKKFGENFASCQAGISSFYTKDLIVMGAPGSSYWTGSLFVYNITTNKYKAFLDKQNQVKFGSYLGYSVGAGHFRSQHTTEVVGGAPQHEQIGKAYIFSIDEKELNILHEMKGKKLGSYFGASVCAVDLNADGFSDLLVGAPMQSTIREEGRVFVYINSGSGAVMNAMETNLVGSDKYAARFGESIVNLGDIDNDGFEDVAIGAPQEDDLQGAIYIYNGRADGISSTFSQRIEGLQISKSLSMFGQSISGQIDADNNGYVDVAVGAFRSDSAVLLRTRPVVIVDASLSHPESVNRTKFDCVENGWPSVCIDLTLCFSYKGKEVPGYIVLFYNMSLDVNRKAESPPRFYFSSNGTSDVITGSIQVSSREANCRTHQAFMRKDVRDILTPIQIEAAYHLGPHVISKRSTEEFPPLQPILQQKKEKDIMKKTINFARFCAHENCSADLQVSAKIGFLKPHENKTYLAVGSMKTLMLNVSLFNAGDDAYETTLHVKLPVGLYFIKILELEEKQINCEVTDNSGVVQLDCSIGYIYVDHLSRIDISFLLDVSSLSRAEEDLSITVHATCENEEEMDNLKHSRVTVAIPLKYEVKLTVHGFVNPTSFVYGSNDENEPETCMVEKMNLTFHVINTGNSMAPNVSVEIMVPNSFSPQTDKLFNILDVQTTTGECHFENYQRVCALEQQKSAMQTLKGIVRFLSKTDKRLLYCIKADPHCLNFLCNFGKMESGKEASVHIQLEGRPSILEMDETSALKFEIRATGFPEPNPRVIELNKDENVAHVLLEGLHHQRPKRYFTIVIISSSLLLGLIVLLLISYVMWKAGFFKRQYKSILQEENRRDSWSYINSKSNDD
Chain of α4β7 integrin (P26010 20-798): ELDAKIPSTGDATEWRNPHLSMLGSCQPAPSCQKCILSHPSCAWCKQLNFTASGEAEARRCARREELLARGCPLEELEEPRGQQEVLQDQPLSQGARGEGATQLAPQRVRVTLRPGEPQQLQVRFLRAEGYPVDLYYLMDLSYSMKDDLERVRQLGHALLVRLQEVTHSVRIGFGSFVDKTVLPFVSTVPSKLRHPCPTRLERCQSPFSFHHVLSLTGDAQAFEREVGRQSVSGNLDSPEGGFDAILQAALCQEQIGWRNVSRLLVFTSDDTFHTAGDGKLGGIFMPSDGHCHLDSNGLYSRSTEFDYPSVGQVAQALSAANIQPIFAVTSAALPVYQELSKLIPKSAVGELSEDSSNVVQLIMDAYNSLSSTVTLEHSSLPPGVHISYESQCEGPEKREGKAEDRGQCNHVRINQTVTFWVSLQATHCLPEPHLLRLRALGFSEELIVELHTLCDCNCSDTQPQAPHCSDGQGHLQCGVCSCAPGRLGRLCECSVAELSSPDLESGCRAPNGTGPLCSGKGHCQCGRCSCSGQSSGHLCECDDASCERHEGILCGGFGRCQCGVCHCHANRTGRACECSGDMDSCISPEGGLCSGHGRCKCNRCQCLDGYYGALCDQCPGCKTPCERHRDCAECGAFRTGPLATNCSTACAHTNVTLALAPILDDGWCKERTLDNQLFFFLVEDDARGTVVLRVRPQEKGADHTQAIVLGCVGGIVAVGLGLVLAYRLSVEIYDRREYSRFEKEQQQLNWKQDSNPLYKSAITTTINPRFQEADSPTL
Chain of α4β1 integrin (P13612 34-1032): as the sequence (P13612 34-1032) above
Chain of α4β1 integrin (P05556 21-798): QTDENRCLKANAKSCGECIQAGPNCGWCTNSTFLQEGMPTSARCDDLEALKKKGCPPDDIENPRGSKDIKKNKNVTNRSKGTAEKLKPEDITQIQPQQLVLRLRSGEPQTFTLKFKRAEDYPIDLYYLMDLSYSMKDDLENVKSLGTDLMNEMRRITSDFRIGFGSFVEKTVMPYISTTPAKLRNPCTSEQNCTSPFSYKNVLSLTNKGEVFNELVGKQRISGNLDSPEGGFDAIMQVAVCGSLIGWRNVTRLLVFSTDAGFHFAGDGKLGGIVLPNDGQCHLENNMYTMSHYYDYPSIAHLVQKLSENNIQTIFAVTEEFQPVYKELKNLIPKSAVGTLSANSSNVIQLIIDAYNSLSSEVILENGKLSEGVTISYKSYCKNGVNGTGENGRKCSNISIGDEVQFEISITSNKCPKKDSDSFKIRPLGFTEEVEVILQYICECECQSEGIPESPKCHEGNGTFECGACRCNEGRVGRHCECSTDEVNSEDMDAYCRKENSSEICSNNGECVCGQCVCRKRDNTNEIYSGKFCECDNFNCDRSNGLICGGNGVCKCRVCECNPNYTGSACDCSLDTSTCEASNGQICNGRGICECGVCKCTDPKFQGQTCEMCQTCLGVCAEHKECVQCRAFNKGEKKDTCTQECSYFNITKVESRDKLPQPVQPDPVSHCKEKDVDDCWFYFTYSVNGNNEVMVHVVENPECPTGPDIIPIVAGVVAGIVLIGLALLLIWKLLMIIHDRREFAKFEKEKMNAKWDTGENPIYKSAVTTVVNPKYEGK

`Cn1c(=O)c(-c2cccc3c(C[C@H](NC(=O)C4(C(F)(F)F)CCN(CC(F)F)CC4)C(=O)O)cccc23)c(C(F)(F)F)c2cc(CN3CCC(F)CC3)ccc21` [Compound 834] was tested, and the IC50 (α4β7 integrin; [1]) was < 10 nM and the IC50 (α4β1 integrin; [2]) was 10 to 100 nM.

For `COc1cccc(CCN2CCC[C@@H](F)C2)c1-c1cccc2c(C[C@H](NC(=O)C3(C(F)(F)F)CCN(CC(F)(F)F)CC3)C(=O)O)cccc12` [Compound 985], the IC50 (α4β7 integrin; [1]) was < 10 nM and the IC50 (α4β1 integrin; [2]) was 100 to 1000 nM.

`Cn1c(=O)c(-c2cccc3c(C[C@H](NC(=O)C4(C(F)(F)F)CCN(CCC(F)(F)F)CC4)C(=O)O)cccc23)c(C(F)(F)F)c2ccccc21` [Compound 536] was tested, and the IC50 (α4β7 integrin; [3]) was 10 to 100 nM and the IC50 (α4β1 integrin; [4]) was > 1000 nM.

In the case of `COc1cc2c(c(OC)c1-c1cccc3c(C[C@H](NC(=O)C4(C(F)(F)F)CCN(CC(F)(F)F)CC4)C(=O)O)cccc13)CN(C1CCCCC1)CC2` [Compound 993], the IC50 (α4β7 integrin; [1]) is reported as < 10 nM and the IC50 (α4β1 integrin; [2]) is reported as 100 to 1000 nM.

With `COc1cccc(CN2CCCCC2)c1-c1cccc2c(C[C@H](NC(=O)c3c(C)cc(C4CC(F)(F)C4)cc3F)C(=O)O)cccc12` [Compound 544] the IC50 (α4β7 integrin; [3]) was < 10 nM and the IC50 (α4β1 integrin; [4]) was 100 to 1000 nM.

With `COc1ccc(CN(C)C)c(OC)c1-c1cccc2c(C[C@H](NC(=O)c3c(F)cccc3C3CC3)C(=O)O)cccc12` [Compound 645] the IC50 (α4β7 integrin; [3]) was < 10 nM and the IC50 (α4β1 integrin; [4]) was > 1000 nM.

With `CC(C)(C)C1CCN(Cc2cccc3c(-c4cccc5c(C[C@H](NC(=O)C6(C(F)(F)F)CCN(CC(F)(F)F)CC6)C(=O)O)cccc45)nccc23)CC1` [Compound 659] the IC50 (α4β7 integrin; [3]) was 10 to 100 nM and the IC50 (α4β1 integrin; [4]) was > 1000 nM.

`COc1ccc(CN2CCCC(C)C2)c(OC)c1-c1cccc2c(C[C@H](NC(=O)C3(C(F)(F)F)CCN(CC(F)(F)F)CC3)C(=O)O)cccc12` (stereo partly shown) [Compound 790] was tested, and the IC50 (α4β7 integrin; [1]) was < 10 nM and the IC50 (α4β1 integrin; [2]) was 100 to 1000 nM.

In the case of `CC1(C(=O)N[C@@H](Cc2cccc3c(-c4ncc(CN5CCCCC5)c5ccccc45)cccc23)C(=O)O)CCN(CC(F)(F)F)CC1` [Compound 576], the IC50 (α4β7 integrin; [3]) is reported as < 10 nM and the IC50 (α4β1 integrin; [4]) is reported as > 1000 nM.

For `COc1c(CN2CCCCC2)ccnc1-c1cccc2c(C[C@H](NC(=O)c3c(C)cccc3F)C(=O)O)cccc12` [Compound 1020], the IC50 (α4β7 integrin; [1]) was 10 to 100 nM and the IC50 (α4β1 integrin; [2]) was > 1000 nM.

`O=C(O)[C@H](Cc1cccc2c(-c3ncc(CN4CCCC(F)(F)CC4)c4ccccc34)cccc12)NC(=O)C1(C(F)(F)F)CCN(CC(F)F)CC1` [Compound 915] was tested, and the IC50 (α4β7 integrin; [1]) was < 10 nM and the IC50 (α4β1 integrin; [2]) was > 1000 nM.

For `CCc1cccc(F)c1C(=O)N[C@@H](Cc1cccc2c(-c3c(OC)ccc(CN4CCCCC4)c3OC)cccc12)C(=O)O` [Compound 649], the IC50 (α4β7 integrin; [3]) was < 10 nM and the IC50 (α4β1 integrin; [4]) was 100 to 1000 nM.

`CN(C)CCc1cccc2c(-c3cccc4c(C[C@H](NC(=O)C5(C(F)(F)F)CCN(CC(F)(F)F)CC5)C(=O)O)cccc34)nccc12` [Compound 1042] was tested, and the IC50 (α4β7 integrin; [1]) was < 10 nM and the IC50 (α4β1 integrin; [2]) was 100 to 1000 nM.

In the case of `COc1cc2c(c(OC)c1-c1cccc3c(C[C@H](NC(=O)c4c(C)cccc4F)C(=O)O)cccc13)CN(C)CC2` [Compound 473], the IC50 (α4β7 integrin; [3]) is reported as < 10 nM and the IC50 (α4β1 integrin; [4]) is reported as 100 to 1000 nM.

In the case of `Cc1cccc(F)c1C(=O)N[C@@H](Cc1cccc2c(-c3ncccc3CN3CCCCC3)cccc12)C(=O)O` [Compound 1021], the IC50 (α4β7 integrin; [1]) is reported as 10 to 100 nM and the IC50 (α4β1 integrin; [2]) is reported as > 1000 nM.

`COc1ccc(CN(C)C)c(OC)c1-c1cccc2c(C[C@H](NC(=O)c3c(F)cccc3Cl)C(=O)O)cccc12` [Compound 610] was tested, and the IC50 (α4β7 integrin; [3]) was < 10 nM and the IC50 (α4β1 integrin; [4]) was 100 to 1000 nM.

For `CC[C@H]1CCCCN1Cc1cnc(-c2cccc3c(C[C@H](NC(=O)C4(C(F)(F)F)CCN(CC(F)F)CC4)C(=O)O)cccc23)c2ccccc12` [Compound 930], the IC50 (α4β7 integrin; [1]) was < 10 nM and the IC50 (α4β1 integrin; [2]) was 100 to 1000 nM.

For `COc1cccc(CCN2CCC(c3ccccc3)CC2)c1-c1cccc2c(C[C@H](NC(=O)C3(C(F)(F)F)CCN(CC(F)(F)F)CC3)C(=O)O)cccc12` [Compound 973], the IC50 (α4β7 integrin; [1]) was 10 to 100 nM and the IC50 (α4β1 integrin; [2]) was > 1000 nM.

For `COc1ccc(CN2CCC(F)CC2)c(C(F)(F)F)c1-c1cccc2c(C[C@H](NC(=O)c3c(C)cccc3F)C(=O)O)cccc12` [Compound 574], the IC50 (α4β7 integrin; [3]) was 10 to 100 nM and the IC50 (α4β1 integrin; [4]) was > 1000 nM.

In the case of `COC(=O)[C@H](Cc1cccc2c(-c3c(OC)ccc(CN(C)C)c3C(F)(F)F)cccc12)NC(=O)OC(C)(C)C` [Compound 551], the IC50 (α4β7 integrin; [3]) is reported as < 10 nM and the IC50 (α4β1 integrin; [4]) is reported as 100 to 1000 nM.

`COc1ccc(CN2CCC(C)(C)CC2)cc1-c1cccc2c(C[C@H](NC(=O)C3(C(F)(F)F)CCN(CC(F)F)CC3)C(=O)O)cccc12` [Compound 942] was tested, and the IC50 (α4β7 integrin; [1]) was < 10 nM and the IC50 (α4β1 integrin; [2]) was 100 to 1000 nM.

`O=C(O)[C@H](Cc1cccc2c(-c3ncc(CN4CCCCC4)c4ccccc34)cccc12)NC(=O)C1(C(F)(F)F)CCN(C2CC(F)(F)C2)CC1` [Compound 681] was tested, and the IC50 (α4β7 integrin; [3]) was < 10 nM and the IC50 (α4β1 integrin; [4]) was 100 to 1000 nM.

With `Cn1c(=O)c(-c2cccc3c(C[C@H](NC(=O)C4(C)CCC5(CCOCC5)CC4)C(=O)O)cccc23)c(C(F)(F)F)c2ccccc21` [Compound 522] the IC50 (α4β7 integrin; [3]) was 10 to 100 nM and the IC50 (α4β1 integrin; [4]) was > 1000 nM.

For `Cn1c(=O)c(-c2cccc3c(C[C@H](NC(=O)c4c(F)cccc4F)C(=O)O)cccc23)c(C(F)(F)F)c2cc(CCN3CCCC3)ccc21` [Compound 710], the IC50 (α4β7 integrin; [1]) was < 10 nM and the IC50 (α4β1 integrin; [2]) was 100 to 1000 nM.

For `O=C(O)[C@H](Cc1cccc2c(-c3ncc(CN4C5CCCC4CC5)c4ccccc34)cccc12)NC(=O)C1(C(F)(F)F)CCN(CC(F)F)CC1` [Compound 911], the IC50 (α4β7 integrin; [1]) was < 10 nM and the IC50 (α4β1 integrin; [2]) was > 1000 nM.

In the case of `O=C(O)[C@H](Cc1cccc2c(-c3nccc4c(CN5CCCCC5)cccc34)cccc12)NC(=O)C1(C(F)(F)F)CCN([C@H]2COCC2(F)F)CC1` [Compound 641], the IC50 (α4β7 integrin; [3]) is reported as < 10 nM and the IC50 (α4β1 integrin; [4]) is reported as 100 to 1000 nM.

For `COc1ccc(CN2CCCC(F)C2)c(OC)c1-c1cccc2c(C[C@H](NC(=O)c3c(C)cccc3F)C(=O)O)cccc12` (stereo partly shown) [Compound 1012], the IC50 (α4β7 integrin; [1]) was < 10 nM and the IC50 (α4β1 integrin; [2]) was > 1000 nM.

In the case of `COc1ccc(CN2CCCCC2)c(C(F)(F)F)c1-c1cccc2c(C[C@H](NC(=O)C3(C(F)(F)F)CCN(CC(F)(F)F)CC3)C(=O)O)cccc12` [Compound 564], the IC50 (α4β7 integrin; [3]) is reported as < 10 nM and the IC50 (α4β1 integrin; [4]) is reported as 100 to 1000 nM.

In the case of `COc1c(CN(C)C)ccc(Cl)c1-c1cccc2c(C[C@H](NC(=O)c3c(C)cccc3F)C(=O)O)cccc12` [Compound 1011], the IC50 (α4β7 integrin; [1]) is reported as < 10 nM and the IC50 (α4β1 integrin; [2]) is reported as > 1000 nM.

For `COc1ccc(CN2CCC[C@@H](F)C2)c(OC)c1-c1cccc2c(C[C@H](NC(=O)C3(C(F)(F)F)CCN(CC(F)(F)F)CC3)C(=O)O)cccc12` [Compound 841], the IC50 (α4β7 integrin; [1]) was < 10 nM and the IC50 (α4β1 integrin; [2]) was > 1000 nM.

`Cc1cc(CN2CCC(C)(C)CC2)cnc1-c1cccc2c(C[C@H](NC(=O)C3(C(F)(F)F)CCN(CC(F)F)CC3)C(=O)O)cccc12` [Compound 902] was tested, and the IC50 (α4β7 integrin; [1]) was < 10 nM and the IC50 (α4β1 integrin; [2]) was > 1000 nM.

In the case of `O=C(O)[C@H](Cc1cccc2c(-c3ncc(CN4CCC(F)(F)CC4)c4ccccc34)cccc12)NC(=O)C1(C(F)(F)F)CCN(CC(F)(F)F)CC1` [Compound 853], the IC50 (α4β7 integrin; [1]) is reported as 10 to 100 nM and the IC50 (α4β1 integrin; [2]) is reported as > 1000 nM.

In the case of `COc1cccc(CCN2CCCC(C)(C)C2)c1-c1cccc2c(C[C@H](NC(=O)C3(C(F)(F)F)CCN(CC(F)(F)F)CC3)C(=O)O)cccc12` [Compound 961], the IC50 (α4β7 integrin; [1]) is reported as < 10 nM and the IC50 (α4β1 integrin; [2]) is reported as 100 to 1000 nM.

In the case of `Cn1c(=O)c(-c2cccc3c(C[C@H](NC(=O)C4(C(F)(F)F)CCN(C5COCC5C(F)(F)F)CC4)C(=O)O)cccc23)c(C(F)(F)F)c2ccccc21` (stereo partly shown) [Compound 513], the IC50 (α4β7 integrin; [3]) is reported as 10 to 100 nM and the IC50 (α4β1 integrin; [4]) is reported as > 1000 nM.

With `COc1ccc2c(c1-c1cccc3c(C[C@H](NC(=O)C4(C(F)(F)F)CCN(CC(F)(F)F)CC4)C(=O)O)cccc13)CN(CC(F)(F)F)CC2` [Compound 750] the IC50 (α4β7 integrin; [1]) was 10 to 100 nM and the IC50 (α4β1 integrin; [2]) was > 1000 nM.
